Key:
Format in all cases: cell-based
A549 cells [1] = assay: Intracellular ROS by H2DCF-DA flow cytometry; details: 48 h, control 1.26%
Excerpt: Although reactive oxygen species (ROS) play an important role in regulating normal cellular processes, abnormal ROS levels contribute to the development of a variety of human diseases, including cancer. Because of their accelerated metabolism, cancer cells have higher ROS levels than normal cells. Nevertheless, the high ROS content of cancer cells makes them more susceptible to oxidative stress-induced cell death, which can be used to target cancer cells selectively. Flow cytometry was used to determine whether 9c induces ROS generation in A549 cells by examining the results. The experiment was conducted with H2DCF-DA as a fluorescent probe. […] Next, we determined the effect of 9c in regulating mitochondrial ROS.
(§1) A549 cells were incubated with a fluorescent indicator, specifically 100 nM tetramethylrhodamine methyl ester perchlorate (TMRM, Thermo Fisher Scientific, Waltham, MA, USA), to determine the mitochondrial membrane potential. The A549 cells treated with the compound were harvested after 48 h, washed in PBS, and re-suspended in FACS buffer (PBS supplemented with 2 percent fetal bovine serum). […] Intracellular fluorescence measurements involved the use of a flow cytometer (BD FACSVerse, BD Biosciences, San Jose, CA, USA) and the FlowJo software (Version 10, TreeStar, Ashland, OR, USA).

A549 cells [2] = assay: Mitochondrial membrane potential by TMRM flow cytometry; details: 48 h, control 93.8%
Description: ROS-induced oxidative stress can cause the rapid depolarization of the inner mitochondrial membrane potential (ΔΨm) and, as a result, impairment of oxidative phosphorylation. Using tetramethylrhodamine methyl ester (TMRM) measurements, we investigated how mitochondrial membrane potential was affected by 9c. A549 cells were exposed to 9c following incubation with TMRM. Afterward, flow cytometry was employed to calculate the intensity of TMRM binding in the healthy membrane.
as §1, with “serum). A flow cytometer (BD FACSVerse, BD Biosciences, San Jose, CA, USA) and the FlowJo software (FlowJo LLC, Ashland, OR, USA) were used to analyze the cells.” for “serum).”

A549 cells [3] = assay: Live-dead assay (calcein/EthD-1) by flow cytometry; details: 48 h
Description: A live cell assay and a dead cell assay were carried out using a mixture of two fluorescent dyes: calcein (green dye for live cells) and ethidium homodimer-1 (EthD-1, red dye for dead cells). The cells were washed and stained with calcein and EthD-1 before conducting imaging fluorescence microscopy and flow cytometry experiments. When treated with 20 μM 9c, we observed a drastic decrease in the number of live cells (green) and a slight increase in the number of dead cells (red).
The A549 cells were seeded in 6-well plates at a density of 1 × 10^6 cells per well, and the cells underwent treatment with the compound (20 and 40 μM) for 48 h. The A549 cells were analyzed using fluorescent dyes for both living and dead cells with the LIVE/DEAD kit (Thermo Fisher Scientific, Waltham, MA, USA). For cell staining, we used EthD-1 and calcein by referring to the manufacturer’s instructions. Images were captured with an EVOS M5000 Imaging System (Thermo Fisher Scientific Inc., Waltham, MA, USA).

Compound: COc1cc(Nc2nc(N)nc(-c3ccc(O)cc3)n2)ccc1Cl [Compound 9c, 4-{4-amino-6-[(4-chloro-3-methoxyphenyl)amino]-1,3,5-triazin-2-yl}phenol]
- ROS level (H2DCF-DA positive) (A549 cells [1]; 20 μM): 7.31%
- ROS level (H2DCF-DA positive) (A549 cells [1]; 40 μM): 22.6%
- TMRM-positive intensity, TMRM (+) (A549 cells [2]; 20 μM): 74.6%
- TMRM-positive intensity, TMRM (+) (A549 cells [2]; 40 μM): 52.3%
- Dead cells (quadrant Q4) (A549 cells [3]; 20 μM): 34.4%
- Dead cells (quadrant Q4) (A549 cells [3]; 40 μM): 46.1%

Source: PMC9268102, “Design, Synthesis and Biological Evaluation of 1,3,5-Triazine Derivatives Targeting hA1 and hA3 Adenosine Receptor” (Molecules, 2022)
